“Also recorded” adds a separate entry of the source.
Key:
[1] = tested on: subjects with recurrent GBM; test: Study CA209143 safety lead-in cohorts (Cohort 1, 1b): safety, tolerability and patient disposition; type: in vivo, human
Procedure: This is the first study examining monoclonal antibodies targeting immune checkpoint inhibitors in subjects with recurrent GBM. To ensure that nivolumab monotherapy and nivolumab in combination with ipilimumab are tolerable, safety lead-in cohorts (Cohort 1, 1b) evaluating the tolerability of two different treatment regimens were initiated prior to advancing a treatment arm into Cohort 2. Cohort 1 examined in a randomized fashion the safety and tolerability of nivolumab monotherapy dosed at 3 mg/kg every 2 weeks or nivolumab 1 mg/kg+ipilimumab 3 mg/kg every 3 weeks for four doses, then nivolumab 3 mg/kg every 2 weeks thereafter. Cohort 1b examined, in a non-randomized fashion, the safety and tolerability of nivolumab 3 mg/kg+ipilimumab 1 mg/kg every 3 weeks for four doses, then nivolumab 3 mg/kg every 2 weeks thereafter.
A randomized, open-label, multicenter, phase 3 study of nivolumab monotherapy versus bevacizumab and a safety study of nivolumab and nivolumab in combination with ipilimumab is conducted in adult (>18 years) subjects with a first recurrence of GBM after treatment with radiotherapy and temozolomide. Since the use of nivolumab and ipilimumab has not previously been studied in subjects with GBM, a safety lead-in (Cohort 1) consisting of approximately 10 subjects in each of two treatment arms are enrolled and randomized to treatment with either Arm N (nivolumab monotherapy) or Arm N+I (nivolumab combined with ipilimumab). Tolerability and safety of a treatment arm is determined after all subjects in the arm completed four doses or discontinued dosing prior to completing four doses. A safety evaluation of Cohort 1 is conducted for each arm based on criteria described herein.
Subjects will be evaluated for safety if they have received any study drug. […]
The causal relationship to study drug is determined by a physician and should be used to assess all adverse events (AE). […]
Tolerability and safety of a treatment arm was determined after all subjects per arm have completed four doses or discontinued dosing prior to completing four doses. […]

[2] = target: T1, PD-1 (Homo sapiens, UniProt Q15116); test: PD-1 receptor occupancy in subjects dosed with nivolumab; type: in vivo; details: 15 subjects, 0.3 mg/kg to 10 mg/kg, across all doses
T1 construct: Receptor-occupancy data from 15 subjects who received 0.3 mg/kg to 10 mg/kg dosing with nivolumab; endogenous in cells
T1 sequence (Q15116 25-288): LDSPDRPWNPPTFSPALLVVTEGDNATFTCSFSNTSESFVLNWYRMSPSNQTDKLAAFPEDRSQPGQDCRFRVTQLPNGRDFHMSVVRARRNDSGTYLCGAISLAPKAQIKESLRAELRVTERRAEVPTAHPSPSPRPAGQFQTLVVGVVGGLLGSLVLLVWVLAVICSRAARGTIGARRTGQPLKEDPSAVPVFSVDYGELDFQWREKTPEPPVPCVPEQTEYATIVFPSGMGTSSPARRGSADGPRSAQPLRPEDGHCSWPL
Procedure: When used in combinations with other anti-cancer agents, the dosage of an anti-PD-1 antibody can be lowered compared to the monotherapy dose. Dosages of nivolumab that are lower than the typical 3 mg/kg, but not less than 0.001 mg/kg, are subtherapeutic dosages. The subtherapeutic doses of an anti-PD-1 antibody used in the methods herein are higher than 0.001 mg/kg and lower than 3 mg/kg. In some embodiments, a subtherapeutic dose is about 0.001 mg/kg-about 1 mg/kg, about 0.01 mg/kg-about 1 mg/kg, about 0.1 mg/kg-about 1 mg/kg, or about 0.001 mg/kg-about 0.1 mg/kg body weight. In some embodiments, the subtherapeutic dose is at least about 0.001 mg/kg, at least about 0.005 mg/kg, at least about 0.01 mg/kg, at least about 0.05 mg/kg, at least about 0.1 mg/kg, at least about 0.5 mg/kg, or at least about 1.0 mg/kg body weight. Receptor-occupancy data from 15 subjects who received 0.3 mg/kg to 10 mg/kg dosing with nivolumab indicate that PD-1 occupancy appears to be dose-independent in this dose range. Across all doses, the mean occupancy rate was 85% (range, 70% to 97%), with a mean plateau occupancy of 72% (range, 59% to 81%). In some embodiments, 0.3 mg/kg dosing can allow for sufficient exposure to lead to maximal biologic activity.

[3] = tested on: resected GBM tumor tissue; test: Histopathology of tumor tissue resected at suspected progression; type: in vivo, human
Excerpt: In those cases in which radiologic progression cannot be differentiated from pseudoprogression and it is the investigator's opinion that a surgical resection to obtain tumor tissue for histopathology is in the subject's best interests, a surgical resection may be performed following consultation with the BMS medical monitor. Tumor biopsy samples (blocks or slides) must be submitted for central review by a neuropathologist to minimize any inter-observer variation in the histopathologic assessment of progression versus treatment-related changes. If tumor pathology confirms progression, then the subject will be discontinued from study medication per protocol discontinuation criteria and the date of progression will be the day that it was first suspected. […] An MRI after the resection is required prior to treatment continuation. The subject will then continue all on-treatment tumor assessments as per the treatment schedule.
In those cases in which radiologic progression cannot be differentiated from pseudoprogression and the subject undergoes a biopsy or diagnostic surgical resection to obtain tumor tissue for histopathology analysis, representative tumor tissue samples will be reviewed locally and submitted for central review by a neuropathologist. If there is discordance between the central and local neuropathologic determination of progression versus treatment-associated changes (pseudoprogression), then a second central neuropathologic review will be performed and serve as the final adjudication of the histopathologic determination. Central review of histopathology will be blinded to the subject treatment arm assignment. Specific instructions will be provided to the investigative sites regarding the requirements for submission of tumor tissue for central neuropathologic review.

[4] = case: nivolumab 3 mg/kg, after five treatments

nivolumab was tested, and the “Patients in the study: Died” value ([1]; Cohort 1, N = 10 per arm, same regimens, deaths in both arms were due to disease, cutoff Sep. 9, 2015) was 7 (70) n (%), the “Deaths due to drug toxicity” value ([1]; Cohort 1, nivolumab 3 mg/kg monotherapy arm and nivolumab 1 mg/kg + ipilimumab 3 mg/kg combination arm, N = 10 each) was “no deaths due to drug toxicity” and the “Reason for not continuing on treatment: Disease Progression” value ([1]; Cohort 1, recurrent GBM, N = 10 per arm, nivolumab 3 mg/kg Q2W or nivolumab 1 mg/kg + ipilimumab 3 mg/kg Q3W x4 then nivolumab 3 mg/kg Q2W, cutoff Sep. 9, 2015) was 9 (90) n (%). The “Mean plateau PD-1 occupancy” value ([2]; range 59% to 81%) was 72%, the “Mean PD-1 occupancy rate” value ([2]; range 70% to 97%) was 85% and the “Histopathology of the resected tumor” value ([3]; case: after five doses of nivolumab 3 mg/kg Q2W, suspected progression) was “immune infiltration consistent with treatment-related changes; also recorded: consistent with significant treatment-related changes”. For the same substance, the “Pathology review of resection, occipital area” value [3, 4] was “viable tumor in samples from the occipital area with infiltrating T-lymphocytes” and the “Pathology review of resection, periventricular area” value [3, 4] was “only necrosis and fibrinous exudate (radiation necrosis) and large aggregates of lymphocytes with no tumor”.

From US20210000953A1, “USE OF IMMUNE CHECKPOINT INHIBITORS IN CENTRAL NERVOUS SYSTEMS NEOPLASMS” (Bristol-Myers Squibb Company, priority 2014, published 2021)
